# PubChem BioAssay (NCI)
#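 Assay format: 96-well plates, 48-hour exposure. TGI: total growth inhibition.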
# Experiments:
# Assay in all cases: NCI tumour cell line growth inhibition, 48 h
# [1] = tested on: RXF 393 renal
# [2] = tested on: DLD-1 colon
# [3] = tested on: 786-0 renal
# [4] = tested on: NCI-H522 lung
# [5] = tested on: M14 melanoma
# [6] = tested on: SF-539 CNS
# [7] = tested on: SNB-75 CNS
# [8] = tested on: ACHN renal
# [9] = tested on: SK-MEL-2 melanoma
# [10] = tested on: HL-60(TB) leukemia
# [11] = tested on: NCI-H460 lung
# [12] = tested on: SF-295 CNS
# [13] = tested on: UACC-257 melanoma
# [14] = tested on: UO-31 renal
# [15] = tested on: HCC-2998 colon
# [16] = tested on: HOP-62 NSCLC
# [17] = tested on: SW-620 colon
# [18] = tested on: RXF-631 renal
# [19] = tested on: LOX IMVI melanoma
# [20] = tested on: MALME-3M melanoma
# [21] = tested on: HCT-15 colon
# [22] = tested on: DMS 273 small cell lung
# [23] = tested on: SF-268 CNS
# [24] = tested on: XF 498 CNS
# [25] = tested on: NCI-H226 lung
# [26] = tested on: DMS 114 small cell lung
# [27] = tested on: HOP-92 NSCLC
# [28] = tested on: OVCAR-4 ovarian
# [29] = tested on: UACC-62 melanoma
# [30] = tested on: IGROV1 ovarian
# [31] = tested on: M19-MEL melanoma
# [32] = tested on: A549 NSCLC
# [33] = tested on: OVCAR-8 ovarian
# [34] = tested on: LXFL 529 NSCLC
# [35] = tested on: K-562 leukemia
# [36] = tested on: HT29 colon
# [37] = tested on: A498 renal
# [38] = tested on: CCRF-CEM leukemia
# [39] = tested on: RPMI-8226 leukemia
# [40] = tested on: COLO 205 colon
# [41] = tested on: EKVX NSCLC
# [42] = tested on: HOP-18 NSCLC
# [43] = tested on: SK-MEL-28 melanoma
# [44] = tested on: U251 CNS
# [45] = tested on: OVCAR-5 ovarian
# [46] = tested on: KM12 colon
# [47] = tested on: TK-10 renal
# [48] = tested on: SK-OV-3 ovarian
# [49] = tested on: MOLT-4 leukemia
# [50] = tested on: KM20L2 colon
# [51] = tested on: SNB-19 CNS
# [52] = tested on: SK-MEL-5 melanoma
# [53] = tested on: CAKI-1 renal
# [54] = tested on: HCT-116 colon
# [55] = tested on: SR leukemia
# [56] = tested on: SN12C renal
# [57] = tested on: NCI-H23 lung
# [58] = tested on: OVCAR-3 ovarian
smiles,measurement,setting,value
N/N=C(/Cc1ccccc1)NNC(N)=S,TGI,[1],> 100 µM
same,TGI,[2],> 100 µM
same,TGI,[3],> 100 µM
same,TGI,[4],76 µM
same,TGI,[5],> 100 µM
same,TGI,[6],> 100 µM
same,TGI,[7],> 100 µM
same,TGI,[8],> 100 µM
same,TGI,[9],> 100 µM
same,TGI,[10],> 100 µM
same,TGI,[11],> 100 µM
same,TGI,[12],> 100 µM
same,TGI,[13],> 100 µM
same,TGI,[14],> 100 µM
same,TGI,[15],> 100 µM
same,TGI,[16],> 100 µM
same,TGI,[17],> 100 µM
same,TGI,[18],> 100 µM
same,TGI,[19],> 100 µM
same,TGI,[20],> 100 µM
same,TGI,[21],> 100 µM
same,TGI,[22],> 100 µM
same,TGI,[23],> 100 µM
same,TGI,[24],> 100 µM
same,TGI,[25],> 100 µM
same,TGI,[26],> 100 µM
same,TGI,[27],> 100 µM
same,TGI,[28],> 100 µM
same,TGI,[29],> 100 µM
same,TGI,[30],> 100 µM
same,TGI,[31],> 100 µM
same,TGI,[32],> 100 µM
same,TGI,[33],> 100 µM
same,TGI,[34],> 100 µM
same,TGI,[35],> 100 µM
same,TGI,[36],> 100 µM
same,TGI,[37],> 100 µM
same,TGI,[38],> 100 µM
same,TGI,[39],> 100 µM
same,TGI,[40],> 100 µM
same,TGI,[41],> 100 µM
same,TGI,[42],> 100 µM
same,TGI,[43],> 100 µM
same,TGI,[44],> 100 µM
same,TGI,[45],> 100 µM
same,TGI,[46],> 100 µM
same,TGI,[47],> 100 µM
same,TGI,[48],> 100 µM
same,TGI,[49],> 100 µM
same,TGI,[50],> 100 µM
CN(C)CCc1ccc(Cl)cc1Cl,TGI,[1],> 100 µM
same,TGI,[2],> 100 µM
same,TGI,[3],> 100 µM
same,TGI,[4],> 100 µM
same,TGI,[5],> 100 µM
same,TGI,[6],> 100 µM
same,TGI,[7],> 100 µM
same,TGI,[51],> 100 µM
same,TGI,[8],> 100 µM
same,TGI,[9],> 100 µM
same,TGI,[10],> 100 µM
same,TGI,[11],> 100 µM
same,TGI,[52],> 100 µM
same,TGI,[12],> 100 µM
same,TGI,[13],> 100 µM
same,TGI,[14],> 100 µM
same,TGI,[15],> 100 µM
same,TGI,[16],> 100 µM
same,TGI,[17],> 100 µM
same,TGI,[18],> 100 µM
same,TGI,[19],> 100 µM
same,TGI,[20],> 100 µM
same,TGI,[21],> 100 µM
same,TGI,[23],> 100 µM
same,TGI,[24],> 100 µM
same,TGI,[26],> 100 µM
same,TGI,[27],> 100 µM
same,TGI,[28],> 100 µM
same,TGI,[29],> 100 µM
same,TGI,[30],> 100 µM
same,TGI,[31],> 100 µM
same,TGI,[53],> 100 µM
same,TGI,[54],> 100 µM
same,TGI,[32],> 100 µM
same,TGI,[55],> 100 µM
same,TGI,[33],> 100 µM
same,TGI,[34],> 100 µM
same,TGI,[35],> 100 µM
same,TGI,[36],> 100 µM
same,TGI,[37],> 100 µM
same,TGI,[38],> 100 µM
same,TGI,[39],> 100 µM
same,TGI,[40],> 100 µM
same,TGI,[41],> 100 µM
same,TGI,[42],> 100 µM
same,TGI,[43],> 100 µM
same,TGI,[44],> 100 µM
same,TGI,[45],> 100 µM
same,TGI,[46],> 100 µM
same,TGI,[47],> 100 µM
same,TGI,[48],> 100 µM
same,TGI,[56],> 100 µM
same,TGI,[49],> 100 µM
same,TGI,[57],> 100 µM
same,TGI,[50],> 100 µM
CN(CC(=O)O)S(=O)(=O)c1ccc(F)cc1,TGI,[1],> 100 µM
same,TGI,[2],> 100 µM
same,TGI,[3],> 100 µM
same,TGI,[4],> 100 µM
same,TGI,[5],> 100 µM
same,TGI,[6],> 100 µM
same,TGI,[7],> 100 µM
same,TGI,[51],> 100 µM
same,TGI,[8],> 100 µM
same,TGI,[9],> 100 µM
same,TGI,[10],> 100 µM
same,TGI,[11],> 100 µM
same,TGI,[52],> 100 µM
same,TGI,[12],> 100 µM
same,TGI,[13],> 100 µM
same,TGI,[14],> 100 µM
same,TGI,[15],> 100 µM
same,TGI,[17],> 100 µM
same,TGI,[18],> 100 µM
same,TGI,[19],> 100 µM
same,TGI,[20],> 100 µM
same,TGI,[21],> 100 µM
same,TGI,[22],> 100 µM
same,TGI,[23],> 100 µM
same,TGI,[24],> 100 µM
same,TGI,[27],> 100 µM
same,TGI,[28],> 100 µM
same,TGI,[29],> 100 µM
same,TGI,[30],> 100 µM
same,TGI,[31],> 100 µM
same,TGI,[53],> 100 µM
same,TGI,[32],> 100 µM
same,TGI,[33],> 100 µM
same,TGI,[34],> 100 µM
same,TGI,[35],> 100 µM
same,TGI,[36],> 100 µM
same,TGI,[58],> 100 µM
same,TGI,[37],> 100 µM
same,TGI,[38],> 100 µM
same,TGI,[39],> 100 µM
same,TGI,[40],> 100 µM
same,TGI,[41],> 100 µM
same,TGI,[42],> 100 µM
same,TGI,[43],> 100 µM
same,TGI,[44],> 100 µM
same,TGI,[45],> 100 µM
same,TGI,[46],> 100 µM
same,TGI,[47],> 100 µM
same,TGI,[48],> 100 µM
same,TGI,[56],> 100 µM
same,TGI,[49],> 100 µM
same,TGI,[57],> 100 µM
same,TGI,[50],> 100 µM
